Measured values: patent US20020045668A1, “Compositions for sustained release of analgesic agents, and methods of making and using the same” (priority 2000, published 2002)

Settings: data not shown
With `CCN(CC)CC(=O)Nc1c(C)cccc1C` [pure lidocaine, lidocaine] the “T80% (time required for 80% of lidocaine to be released)” value was “less than 30 minutes”.

Settings: cited from earlier work
In the case of `OC[C@@H](O)[C@@H](O)[C@H](O)[C@H](O)CO` [Mannitol], the “Solubility in Organic Solvents” value is given as “Practically insoluble”.
In the case of `C/C=C/C=C/C(=O)O` [Sorbic acid], the “Solubility in Organic Solvents” value is listed as 1 in 15 chloroform.
In the case of `CC(C)CCC[C@@H](C)[C@H]1CC[C@H]2[C@@H]3CC=C4C[C@@H](O)CC[C@]4(C)[C@H]3CC[C@]12C` [Cholesterol], the “Solubility in Organic Solvents” value is listed as 1 in 4.5 chloroform.
For `CCCCC(CC)COC(=O)CC(C(=O)OCC(CC)CCCC)S(=O)(=O)O` (stereo not drawn) [Docusate], the “Solubility in Organic Solvents” value is given as 1 in 1.
In the case of `O=C1NS(=O)(=O)c2ccccc21` [Saccharin], the “Solubility in Organic Solvents” value is given as “Slightly soluble”.
